Measured values published in patent US20240043404A1 (AbbVie Inc., priority 2009, published 2024).

System: RS4;11 cells
Assay: RS4;11 cell viability assay (CellTiter Glo);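 also: acute lymphoblastic leukemia line RS4,11, EC50 derived from percentage of viable cells after treatment relative to untreated controls, cell killing taken as a measure of Bcl-2 inhibition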
Format: cell-based, human
Conditions: Homo sapiens, RS4-11, 48 h, 50,000 cells per well, 10% human serum, 48 hours; read-out: RS4; 11 EC50 Values
Procedure: The acute lymphoblastic leukemia (ALL) cell line RS4;11 was used as the primary human cell line to assess the cellular activity of Bcl-2 selective agents in vitro and their efficacy in vivo.
Cell cytotoxicity EC50 values were assessed using CellTiter Glo (Promega) according to the manufacturer's recommendations. The EC50 values were determined as a percentage of viable cells following treatment compared to the untreated control cells.

SMILES | EC50 [nM]
CC1(C)CCC(CC2CCN(c3ccc(C(=O)NS(=O)(=O)c4ccc(NCC5CCOCC5)c([N+](=O)[O-])c4)c(Oc4cnc5[nH]ccc5c4)c3)CC2)C(c2ccc(Cl)cc2)C1 (stereo not shown) [Example 296, 4-(4-{[2-(4-chlorophenyl)-4,4-dimethylcyclohexyl]methyl}piperidin-1-yl)-N-({3-nitro-4-[(tetrahydro-2H-pyran-4-ylmethyl)amino]phenyl}sulfonyl)-2-(1H-pyrrolo[2,3-b]pyridin-5-yloxy)benzamide] | 769
CC1(C)CCC(CN2CCN(c3ccc(C(=O)NS(=O)(=O)c4cnc(OCC5CCOCC5)c(C(F)(F)F)c4)c(Oc4cnc5[nH]ccc5c4)c3)CC2)=C(c2ccc(Cl)cc2)C1 [Example 297, 4-(4-{[2-(4-chlorophenyl)-4,4-dimethylcyclohex-1-en-1-yl]methyl}piperazin-1-yl)-2-(1H-pyrrolo[2,3-b]pyridin-5-yloxy)-N-{[6-(tetrahydro-2H-pyran-4-ylmethoxy)-5-(trifluoromethyl)pyridin-3-yl]sulfonyl}benzamide] | 592
CC1(C)CCC(CN2CCN(c3ccc(C(=O)NS(=O)(=O)c4cnc(OC[C@H]5CC[C@H](O)CC5)c(Cl)c4)c(Oc4cnc5[nH]ccc5c4)c3)CC2)=C(c2ccc(Cl)cc2)C1 [Example 298, N-({5-chloro-6-[(trans-4-hydroxycyclohexyl)methoxy]pyridin-3-yl}sulfonyl)-4-(4-{[2-(4-chlorophenyl)-4,4-dimethylcyclohex-1-en-1-yl]methyl}piperazin-1-yl)-2-(1H-pyrrolo[2,3-b]pyridin-5-yloxy)benzamide] | 70.3
CC1(C)CCC(CN2CCN(c3ccc(C(=O)NS(=O)(=O)c4ccc(OCC5(F)CCOCC5)c(C#N)c4)c(Oc4cnc5[nH]ccc5c4)c3)CC2)=C(c2ccc(Cl)cc2)C1 [Example 299, 4-(4-{[2-(4-chlorophenyl)-4,4-dimethylcyclohex-1-en-1-yl]methyl}piperazin-1-yl)-N-({3-cyano-4-[(4-fluorotetrahydro-2H-pyran-4-yl)methoxy]phenyl}sulfonyl)-2-(1H-pyrrolo[2,3-b]pyridin-5-yloxy)benzamide] | 68
CO[C@H]1CC[C@H](COc2ncc(S(=O)(=O)NC(=O)c3ccc(N4CCN(CC5=C(c6ccc(Cl)cc6)CC(C)(C)CC5)CC4)cc3Oc3cnc4[nH]ccc4c3)cc2C(F)(F)F)CC1 [Example 300, 4-(4-{[2-(4-chlorophenyl)-4,4-dimethylcyclohex-1-en-1-yl]methyl}piperazin-1-yl)-N-({6-[(trans-4-methoxycyclohexyl)methoxy]-5-(trifluoromethyl)pyridin-3-yl}sulfonyl)-2-(1H-pyrrolo[2,3-b]pyridin-5-yloxy)benzamide] | 763
CO[C@H]1CC[C@@H](COc2ncc(S(=O)(=O)NC(=O)c3ccc(N4CCN(CC5=C(c6ccc(Cl)cc6)CC(C)(C)CC5)CC4)cc3Oc3cnc4[nH]ccc4c3)cc2C(F)(F)F)CC1 [Example 301, 4-(4-{[2-(4-chlorophenyl)-4,4-dimethylcyclohex-1-en-1-yl]methyl}piperazin-1-yl)-N-({6-[(cis-4-methoxycyclohexyl)methoxy]-5-(trifluoromethyl)pyridin-3-yl}sulfonyl)-2-(1H-pyrrolo[2,3-b]pyridin-5-yloxy)benzamide] | > 1000
CC1(C)CCC(CC2CCN(c3ccc(C(=O)NS(=O)(=O)c4cnc(OCC5(O)CCC(F)(F)CC5)c(Cl)c4)c(Oc4cnc5[nH]ccc5c4)c3)CC2)=C(c2ccc(Cl)cc2)C1 [Example 302, N-({5-chloro-6-[(4,4-difluoro-1-hydroxycyclohexyl)methoxy]pyridin-3-yl}sulfonyl)-4-(4-{[2-(4-chlorophenyl)-4,4-dimethylcyclohex-1-en-1-yl]methyl}piperidin-1-yl)-2-(1H-pyrrolo[2,3-b]pyridin-5-yloxy)benzamide] | 381
CC1(C)CCC(CN2CCN(c3ccc(C(=O)NS(=O)(=O)c4ccc(OC[C@H]5CC[C@H](N6CCOCC6)CC5)c(Cl)c4)c(Oc4cnc5[nH]ccc5c4)c3)CC2)=C(c2ccc(Cl)cc2)C1 [Example 303, N-[(3-chloro-4-{[trans-4-(morpholin-4-yl)cyclohexyl]methoxy}phenyl)sulfonyl]-4-(4-{[2-(4-chlorophenyl)-4,4-dimethylcyclohex-1-en-1-yl]methyl}piperazin-1-yl)-2-(1H-pyrrolo[2,3-b]pyridin-5-yloxy)benzamide] | 47.8
CC1(C)CCC(CN2CCN(c3ccc(C(=O)NS(=O)(=O)c4ccc(NCCCN(Cc5cncs5)C5CC5)c([N+](=O)[O-])c4)c(Oc4cnc5[nH]ccc5c4)c3)CC2)=C(c2ccc(Cl)cc2)C1 [Example 304, 4-(4-{[2-(4-chlorophenyl)-4,4-dimethylcyclohex-1-en-1-yl]methyl}piperazin-1-yl)-N-{[4-({3-[cyclopropyl(1,3-thiazol-5-ylmethyl)amino]propyl}amino)-3-nitrophenyl]sulfonyl}-2-(1H-pyrrolo[2,3-b]pyridin-5-yloxy)benzamide] | 298
CC1(C)CCC(CN2CCN(c3ccc(C(=O)NS(=O)(=O)c4ccc(OC[C@H]5CC[C@H](O)CC5)c(Cl)c4)c(Oc4cnc5[nH]ccc5c4)c3)CC2)=C(c2ccc(Cl)cc2)C1 [Example 305, N-({3-chloro-4-[(trans-4-hydroxycyclohexyl)methoxy]phenyl}sulfonyl)-4-(4-{[2-(4-chlorophenyl)-4,4-dimethylcyclohex-1-en-1-yl]methyl}piperazin-1-yl)-2-(1H-pyrrolo[2,3-b]pyridin-5-yloxy)benzamide] | 32.5

Results, then the molecule that gave them:

EC50 [nM] | SMILES
553 | CC1(C)CCC(CN2CCN(c3ccc(C(=O)NS(=O)(=O)c4ccc(NCC5CCOCC5)c(Cl)c4)c(Oc4cnc5[nH]ccc5c4)c3)CC2)=C(c2ccc(Cl)cc2)C1 [Example 306, 4-(4-{[2-(4-chlorophenyl)-4,4-dimethylcyclohex-1-en-1-yl]methyl}piperazin-1-yl)-N-({3-chloro-4-[(tetrahydro-2H-pyran-4-ylmethyl)amino]phenyl}sulfonyl)-2-(1H-pyrrolo[2,3-b]pyridin-5-yloxy)benzamide]
128 | CC1(C)CCC(CN2CCN(c3ccc(C(=O)NS(=O)(=O)c4ccc(OCC5(F)CCOCC5)c(C(F)(F)F)c4)c(Oc4cnc5[nH]ccc5c4)c3)CC2)=C(c2ccc(Cl)cc2)C1 [Example 307, 4-(4-{[2-(4-chlorophenyl)-4,4-dimethylcyclohex-1-en-1-yl]methyl}piperazin-1-yl)-N-({4-[(4-fluorotetrahydro-2H-pyran-4-yl)methoxy]-3-(trifluoromethyl)phenyl}sulfonyl)-2-(1H-pyrrolo[2,3-b]pyridin-5-yloxy)benzamide]
257 | CC1(C)CCC(CN2CCN(c3ccc(C(=O)NS(=O)(=O)c4ccc(NCCCN(CC(F)(F)F)C5CC5)c([N+](=O)[O-])c4)c(Oc4cnc5[nH]ccc5c4)c3)CC2)=C(c2ccc(Cl)cc2)C1 [Example 308, 4-(4-{[2-(4-chlorophenyl)-4,4-dimethylcyclohex-1-en-1-yl]methyl}piperazin-1-yl)-N-{[4-({3-[cyclopropyl(2,2,2-trifluoroethyl)amino]propyl}amino)-3-nitrophenyl]sulfonyl}-2-(1H-pyrrolo[2,3-b]pyridin-5-yloxy)benzamide]
52.4 | CC1(C)CCC(CN2CCN(c3ccc(C(=O)NS(=O)(=O)c4ccc(OCC5CCN(C6COC6)CC5)c(Cl)c4)c(Oc4cnc5[nH]ccc5c4)c3)CC2)=C(c2ccc(Cl)cc2)C1 [Example 309, N-[(3-chloro-4-{[1-(oxetan-3-yl)piperidin-4-yl]methoxy}phenyl)sulfonyl]-4-(4-{[2-(4-chlorophenyl)-4,4-dimethylcyclohex-1-en-1-yl]methyl}piperazin-1-yl)-2-(1H-pyrrolo[2,3-b]pyridin-5-yloxy)benzamide]
> 1000 | CC1(C)CCC(CN2CCN(c3ccc(C(=O)NS(=O)(=O)c4cc(F)c(OCC5(F)CCOCC5)c(F)c4)c(Oc4cnc5[nH]ccc5c4)c3)CC2)=C(c2ccc(Cl)cc2)C1 [Example 310, 4-(4-{[2-(4-chlorophenyl)-4,4-dimethylcyclohex-1-en-1-yl]methyl}piperazin-1-yl)-N-({3,5-difluoro-4-[(4-fluorotetrahydro-2H-pyran-4-yl)methoxy]phenyl}sulfonyl)-2-(1H-pyrrolo[2,3-b]pyridin-5-yloxy)benzamide]
35.8 | CC1(C)CCC(CN2CCN(c3ccc(C(=O)NS(=O)(=O)c4ccc(NCCCN(C5CC5)C5COC5)c([N+](=O)[O-])c4)c(Oc4cnc5[nH]ccc5c4)c3)CC2)=C(c2ccc(Cl)cc2)C1 [Example 311, 4-(4-{[2-(4-chlorophenyl)-4,4-dimethylcyclohex-1-en-1-yl]methyl}piperazin-1-yl)-N-{[4-({3-[cyclopropyl(oxetan-3-yl)amino]propyl}amino)-3-nitrophenyl]sulfonyl}-2-(1H-pyrrolo[2,3-b]pyridin-5-yloxy)benzamide]
16.2 | CN1CCC[C@H]1C(=O)N1CCC(COc2ccc(S(=O)(=O)NC(=O)c3ccc(N4CCN(CC5=C(c6ccc(Cl)cc6)CC(C)(C)CC5)CC4)cc3Oc3cnc4[nH]ccc4c3)cc2Cl)CC1 [Example 312, N-[(3-chloro-4-{[1-(1-methyl-L-prolyl)piperidin-4-yl]methoxy}phenyl)sulfonyl]-4-(4-{[2-(4-chlorophenyl)-4,4-dimethylcyclohex-1-en-1-yl]methyl}piperazin-1-yl)-2-(1H-pyrrolo[2,3-b]pyridin-5-yloxy)benzamide]
> 1000 | CC1(C)CCC(CN2CCN(c3ccc(C(=O)NS(=O)(=O)c4cc(F)c(F)c(OCC5(F)CCOCC5)c4)c(Oc4cnc5[nH]ccc5c4)c3)CC2)=C(c2ccc(Cl)cc2)C1 [Example 313, 4-(4-{[2-(4-chlorophenyl)-4,4-dimethylcyclohex-1-en-1-yl]methyl}piperazin-1-yl)-N-({3,4-difluoro-5-[(4-fluorotetrahydro-2H-pyran-4-yl)methoxy]phenyl}sulfonyl)-2-(1H-pyrrolo[2,3-b]pyridin-5-yloxy)benzamide]
660 | CC1(C)CCC(CN2CCN(c3ccc(C(=O)NS(=O)(=O)c4cnc(OC[C@@H]5CN(C6CC6)CCO5)c(Cl)c4)c(Oc4cnc5[nH]ccc5c4)c3)CC2)=C(c2ccc(Cl)cc2)C1 [Example 314, N-[(5-chloro-6-{[(2S)-4-cyclopropylmorpholin-2-yl]methoxy}pyridin-3-yl)sulfonyl]-4-(4-{[2-(4-chlorophenyl)-4,4-dimethylcyclohex-1-en-1-yl]methyl}piperazin-1-yl)-2-(1H-pyrrolo[2,3-b]pyridin-5-yloxy)benzamide]
